Experimental data taken from patent US20250228239A1, “MOLECULES HAVING PESTICIDAL UTILITY, AND INTERMEDIATES, COMPOSITIONS, AND PROCESSES, RELATED THERETO” (priority 2024, published 2025).

What was measured:
Type in all cases: in vivo
[1] = system: Beet Armyworm (Spodoptera exigua, LAPHEG); experiment: Bioassays on Beet Armyworm (BAW), 128-well diet tray assay; details: Spodoptera exigua; Table ABC: Biological Results; species BAW; read-out: BAW
Outline: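 Eight diet wells per compound were treated at 50 μg/cm^2 (acetone-water 90:10), dried, then infested with 1–5 second-instar larvae each. After five to seven days at 25 °C under 14:10 photoperiod, mortality was scored and averaged across wells.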

[2] = system: Cabbage Looper (Trichoplusia ni, TRIPNI); experiment: Bioassays on Cabbage Looper (CL), 128-well diet tray assay; details: Trichoplusia ni; Table ABC: Biological Results; species CL; read-out: CL
Outline: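 Test molecule was dissolved in 90:10 acetone-water, applied to artificial diet at 50 μg/cm^2 and allowed to dry. Second-instar larvae were then added, one to five per well, and trays held at 25° C for five to seven days before mortality was scored and averaged.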

[3] = system: Yellow Fever Mosquito (Aedes aegypti, AEDSAE); details: Table ABC: Biological Results; species YFM
Outline: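 Mortality after 3 days at room temperature is the read-out, scored well by well and converted to a rating. Test molecules came from 4000 ppm stocks in DMSO, further diluted in 90:10 water/acetone, and were exposed to roughly 1-day-old larvae suspended in liver-powder water.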

SMILES: Cc1cc(NC(=O)[C@H]2[C@H](c3ccc(F)c(Cl)c3)C2(Cl)Cl)cc(C(=O)Nc2ccc(F)cc2F)c1F (relative stereo) [F1137, trans-5-(2,2-Dichloro-3-(3-chloro-4-fluorophenyl)cyclopropane-1-carboxamido)-N-(2,4-difluorophenyl)-2-fluoro-3-methylbenzamide]
- pest or weed control at 50 µg/cm2 [1]: 50 to 100%
- pest or weed control at 50 µg/cm2 [2]: 50 to 100%
- YFM [3]: A (80–100)

SMILES: CC(=O)Nc1ccc(NC(=O)c2cc(NC(=O)[C@H]3[C@H](c4ccc(F)c(Cl)c4)C3(Cl)Cl)cc(C)c2F)cc1 (relative stereo) [F1139, trans-N-(4-Acetamidophenyl)-5-(2,2-dichloro-3-(3-chloro-4-fluorophenyl)-cyclopropane-1-carboxamido)-2-fluoro-3-methylbenzamide]
- pest or weed control at 50 µg/cm2 [1]: 50 to 100%
- pest or weed control at 50 µg/cm2 [2]: 50 to 100%
- YFM [3]: A (80–100)

SMILES: Nc1c(F)ccc(NC(=O)c2cc(NC(=O)[C@H]3[C@H](c4ccc(I)cc4)C3(Cl)Cl)ccc2Cl)c1F (relative stereo) [F1140, trans-N-(3-Amino-2,4-difluorophenyl)-2-chloro-5-(2,2-dichloro-3-(4-iodophenyl)cyclopropane-1-carboxamido)benzamide]
- pest or weed control at 50 µg/cm2 [1]: 50 to 100%
- pest or weed control at 50 µg/cm2 [2]: 50 to 100%
- YFM [3]: A (80–100)

SMILES: Nc1c(F)ccc(NC(=O)c2cc(NC(=O)[C@H]3[C@H](c4cccc(I)c4)C3(Cl)Cl)ccc2Cl)c1F (relative stereo) [F1141, trans-N-(3-Amino-2,4-difluorophenyl)-2-chloro-5-(2,2-dichloro-3-(3-iodophenyl)cyclopropane-1-carboxamido)benzamide]
- pest or weed control at 50 µg/cm2 [1]: 50 to 100%
- pest or weed control at 50 µg/cm2 [2]: 50 to 100%
- YFM [3]: A (80–100)

SMILES: Nc1c(F)ccc(NC(=O)c2cc(NC(=O)[C@H]3[C@H](c4ccc(S(F)(F)(F)(F)F)cc4)C3(Cl)Cl)ccc2Cl)c1F (relative stereo) [F1142, trans-N-(3-Amino-2,4-difluorophenyl)-2-chloro-5-(2,2-dichloro-3-(4-(pentafluoro-λ^6-sulfanyl)phenyl)cyclopropane-1-carboxamido)benzamide]
- pest or weed control at 50 µg/cm2 [1]: 50 to 100%
- pest or weed control at 50 µg/cm2 [2]: 50 to 100%
- YFM [3]: A (80–100)

SMILES: Nc1c(F)ccc(NC(=O)c2cc(NC(=O)[C@H]3[C@H](c4cccc(S(F)(F)(F)(F)F)c4)C3(Cl)Cl)ccc2Cl)c1F (relative stereo) [F1143, trans-N-(3-Amino-2,4-difluorophenyl)-2-chloro-5-(2,2-dichloro-3-(3-(pentafluoro-λ^6-sulfanyl)phenyl)cyclopropane-1-carboxamido)benzamide]
- pest or weed control at 50 µg/cm2 [1]: 50 to 100%
- pest or weed control at 50 µg/cm2 [2]: 50 to 100%
- YFM [3]: A (80–100)

SMILES: Nc1c(F)ccc(NC(=O)c2cc(NC(=O)[C@H]3[C@H](c4cc(Cl)c(Cl)c(C(F)(F)F)c4)C3(Cl)Cl)ccc2Cl)c1F (relative stereo) [F1149, trans-N-(3-Amino-2,4-difluorophenyl)-2-chloro-5-(2,2-dichloro-3-(3,4-dichloro-5-(trifluoromethyl)phenyl)cyclopropane-1-carboxamido)benzamide]
- pest or weed control at 50 µg/cm2 [1]: 50 to 100%
- pest or weed control at 50 µg/cm2 [2]: 50 to 100%
- YFM [3]: A (80–100)

SMILES: Nc1c(F)ccc(NC(=O)c2cc(NC(=O)[C@H]3[C@@H](c4cc(Cl)c(Cl)c(C(F)(F)F)c4)C3(Cl)Cl)ccc2Cl)c1F (relative stereo) [F1150, cis-N-(3-Amino-2,4-difluorophenyl)-2-chloro-5-(2,2-dichloro-3-(3,4-dichloro-5-(trifluoromethyl)phenyl)cyclopropane-1-carboxamido)benzamide]
- pest or weed control at 50 µg/cm2 [1]: 50 to 100%
- pest or weed control at 50 µg/cm2 [2]: 50 to 100%
- YFM [3]: A (80–100)

SMILES: O=C(Nc1ccc(F)cc1)c1cc(NC(=O)[C@H]2[C@H](c3ccc(F)c(Cl)c3)C2(Cl)Cl)cc(F)c1Cl (relative stereo) [F1152, trans-2-Chloro-5-(2,2-dichloro-3-(3-chloro-4-fluorophenyl)cyclopropane-1-carboxamido)-3-fluoro-N-(4-fluorophenyl)benzamide]
- pest or weed control at 50 µg/cm2 [1]: 50 to 100%
- pest or weed control at 50 µg/cm2 [2]: 50 to 100%
- YFM [3]: A (80–100)

SMILES: O=C(Nc1ccc(F)cc1F)c1cc(NC(=O)[C@H]2[C@H](c3ccc(F)c(Cl)c3)C2(Cl)Cl)cc(F)c1Cl (relative stereo) [F1153, trans-2-Chloro-5-(2,2-dichloro-3-(3-chloro-4-fluorophenyl)cyclopropane-1-carboxamido)-N-(2,4-difluorophenyl)-3-fluorobenzamide]
- pest or weed control at 50 µg/cm2 [1]: 50 to 100%
- pest or weed control at 50 µg/cm2 [2]: 50 to 100%
- YFM [3]: A (80–100)

SMILES: CC(=O)Nc1ccc(NC(=O)c2cc(NC(=O)[C@H]3[C@H](c4ccc(F)c(Cl)c4)C3(Cl)Cl)cc(F)c2Cl)cc1 (relative stereo) [F1154, trans-N-(4-Acetamidophenyl)-2-chloro-5-(2,2-dichloro-3-(3-chloro-4-fluorophenyl)cyclopropane-1-carboxamido)-3-fluorobenzamide]
- pest or weed control at 50 µg/cm2 [1]: 50 to 100%
- pest or weed control at 50 µg/cm2 [2]: 50 to 100%
- YFM [3]: A (80–100)

SMILES: CC(=O)Nc1c(F)ccc(NC(=O)c2cc(NC(=O)[C@H]3[C@H](c4cc(Cl)cc(Cl)c4)C3(Cl)Cl)ccc2Cl)c1Cl (relative stereo) [F1160, trans-N-(3-acetamido-2-chloro-4-fluorophenyl)-2-chloro-5-(2,2-dichloro-3-(3,5-dichlorophenyl)cyclopropane-1-carboxamido)benzamide]
- pest or weed control at 50 µg/cm2 [1]: 50 to 100%
- pest or weed control at 50 µg/cm2 [2]: 50 to 100%
- YFM [3]: A (80–100)

SMILES: COCCNc1ccc(NC(=O)c2cc(NC(=O)[C@H]3[C@H](c4cc(Cl)cc(Cl)c4)C3(Cl)Cl)ccc2Cl)c(C)c1 (relative stereo) [F1162, trans-2-Chloro-5-(2,2-dichloro-3-(3,5-dichlorophenyl)cyclopropane-1-carboxamido)-N-(4-((2-methoxyethyl)amino)-2-methylphenyl)benzamide]
- pest or weed control at 50 µg/cm2 [1]: 50 to 100%
- pest or weed control at 50 µg/cm2 [2]: 50 to 100%
- YFM [3]: A (80–100)

SMILES: O=C(Nc1ccc(F)cc1F)c1cc(NC(=O)[C@H]2[C@H](c3cc(F)c(Cl)c(C(F)(F)F)c3)C2(Cl)Cl)ccc1Cl (relative stereo) [F1163, trans-2-Chloro-5-(2,2-dichloro-3-(4-chloro-3-fluoro-5-(trifluoromethyl)phenyl)cyclopropane-1-carboxamido)-N-(2,4-difluorophenyl)benzamide]
- pest or weed control at 50 µg/cm2 [1]: 50 to 100%
- pest or weed control at 50 µg/cm2 [2]: 50 to 100%
- YFM [3]: A (80–100)

SMILES: O=C(Nc1ccc(F)cc1F)c1cc(NC(=O)[C@H]2[C@@H](c3cc(F)c(Cl)c(C(F)(F)F)c3)C2(Cl)Cl)ccc1Cl (relative stereo) [F1164, cis-2-Chloro-5-(2,2-dichloro-3-(4-chloro-3-fluoro-5-(trifluoromethyl)phenyl)cyclopropane-1-carboxamido)-N-(2,4-difluorophenyl)benzamide]
- pest or weed control at 50 µg/cm2 [1]: 50 to 100%
- pest or weed control at 50 µg/cm2 [2]: 50 to 100%
- YFM [3]: A (80–100)

SMILES: Cc1cc(NCc2ccc([N+](=O)[O-])cc2)ccc1NC(=O)c1cc(NC(=O)[C@H]2[C@H](c3cc(Cl)cc(Cl)c3)C2(Cl)Cl)ccc1Cl (relative stereo) [F1166, trans-2-Chloro-5-(2,2-dichloro-3-(3,5-dichlorophenyl)cyclopropane-1-carboxamido)-N-(2-methyl-4-((4-nitrobenzyl)amino)phenyl)benzamide]
- pest or weed control at 50 µg/cm2 [1]: 50 to 100%
- pest or weed control at 50 µg/cm2 [2]: 50 to 100%
- YFM [3]: A (80–100)

SMILES: Nc1c(F)ccc(NC(=O)c2cc(NC(=O)[C@H]3[C@H](c4cc(F)c(Cl)c(C(F)(F)F)c4)C3(Cl)Cl)ccc2Cl)c1F (relative stereo) [F1167, trans-N-(3-Amino-2,4-difluorophenyl)-2-chloro-5-(2,2-dichloro-3-(4-chloro-3-fluoro-5-(trifluoromethyl)phenyl)cyclopropane-1-carboxamido)benzamide]
- pest or weed control at 50 µg/cm2 [1]: 50 to 100%
- pest or weed control at 50 µg/cm2 [2]: 50 to 100%
- YFM [3]: A (80–100)

SMILES: O=C(Nc1ccc(F)cc1F)c1cc(NC(=O)[C@H]2[C@H](c3cc(Cl)c(F)c(Cl)c3)C2(Cl)Cl)ccc1Cl (relative stereo) [F1172, trans-2-Chloro-5-(2,2-dichloro-3-(3,5-dichloro-4-fluorophenyl)cyclopropane-1-carboxamido)-N-(2,4-difluorophenyl)benzamide]
- pest or weed control at 50 µg/cm2 [1]: 50 to 100%
- pest or weed control at 50 µg/cm2 [2]: 50 to 100%
- YFM [3]: A (80–100)

SMILES: O=C(Nc1ccc(F)cc1F)c1cc(NC(=O)[C@H]2[C@@H](c3cc(Cl)c(F)c(Cl)c3)C2(Cl)Cl)ccc1Cl (relative stereo) [F1173, cis-2-Chloro-5-(2,2-dichloro-3-(3,5-dichloro-4-fluorophenyl)cyclopropane-1-carboxamido)-N-(2,4-difluorophenyl)benzamide]
- pest or weed control at 50 µg/cm2 [1]: 50 to 100%
- pest or weed control at 50 µg/cm2 [2]: 50 to 100%
- YFM [3]: A (80–100)

SMILES: Cc1cc(NCc2ccccc2)ccc1NC(=O)c1cc(NC(=O)[C@H]2[C@H](c3cc(Cl)cc(Cl)c3)C2(Cl)Cl)ccc1Cl (relative stereo) [F1176, trans-N-(4-(Benzylamino)-2-methylphenyl)-2-chloro-5-(2,2-dichloro-3-(3,5-dichlorophenyl)cyclopropane-1-carboxamido)benzamide]
- pest or weed control at 50 µg/cm2 [1]: 50 to 100%
- pest or weed control at 50 µg/cm2 [2]: 50 to 100%
- YFM [3]: A (80–100)
